Test [1] concerns the target T1, carboxysome-associated PII protein (CPII) (Thiomonas intermedia, UniProt D5X329). Nature of the test: crystal structures. Type of test: binding.
Test [2] has as its target T1, carboxysome-associated PII protein (CPII).

Here are results for two compounds from PMC5048545 (Journal of molecular biology, 2016).

Turning to `Nc1ncnc2c1ncn2[C@@H]1O[C@H](COP(=O)(O)O)[C@@H](O)[C@H]1O` [AMP], the Kd – broadly, the equilibrium constant for the complex coming apart – in test [1] turned out to be 1800 µM.

Turning to `O=C(O)O` [bicarbonate], the “crystal structure; EPR titration” value in test [2] was “Bicarbonate molecules bind in nooks formed by Gly-101 and Arg-102, which immediately precede the C-loop α-helix”.
